For assay [1], the system named is primary murine hepatocytes. Put plainly: Primary murine hepatocyte culture, IL-6 mRNA by RT-PCR. The format is cell-based, mouse. The following applies: pre-cultured two days in GFS vs GF media, FIG. 3H. Here is the method: Hepatocytes were isolated from male wild-type and CARKL overexpressing mice after the mice were sacrificed by hepatic in situ collagenase perfusion. After perfusion, the liver was quickly removed, minced, and filtered through a cell strainer (Fisher Scientific, Inc) into a 50 ml sterile tube. Hepatocytes in the resulting filtrate were purified from the nonparenchymal cells by centrifugation steps. The isolated hepatocytes were seeded into plates at a concentration of 0.25×10^6/ml in respective DMEM-media containing 10% FBS and indicated carbohydrate mixes at 3 g/L (glucose and fructose (GF), or glucose, fructose and sedoheptulose (GFS)) at least two days before experiments were performed.
Briefly, total RNA was extracted and reverse-transcribed using commercial kits (QIAGEN, Applied Biosystems). Quantitative real-time PCRs were performed on an AbiPRISM 7900HT real-time cycler using iTaq SYBR Green Supermix with ROX (BioRad) to measure CARKL, adiponectin, UCP-1, TNFa, IL-6, MCP-1, and beta-actin expression as previously described (Haschemi et al., Cell Metab. 15 (2012), 813-826). Expression of target gene was normalized to beta-actin expression. Relative expression of target gene was calculated by the delta-delta CT method.

Assay [2] has as its system osteoclasts. The assay is described as follows: In vitro bone resorption assay. Type of assay: cell-based, mouse. Here is the method: Mouse bones were isolated from male wild-type and CARKL overexpressing mice and bone marrow wash flushed, washed and cleared from redblood cells by lysis, and subsequently differentiated in DMEM containing 25 mM glucose and 20 ng/ml M-CSF. After 4 days, cells for osteoclast differentiation were harvested and seeded in corning osteo assay plates with differentiation media (see below), and for primary bone marrow derived macrophages (BMDM) the medium was renewed and further supplemented with M-SCF for two days. Differentiated BMDM were then seeded in respective DMEM-media containing 10% FBS and indicated carbohydrate mixes at 3 g/L (glucose and fructose (GF), or glucose, fructose and sedoheptulose (GFS)) at least two days before experiments were performed. Osteoclast precursor cells (bone marrow cells treated with 20 ng/ml M-CSF for 4 days) were plated in 24-well Corning Osteo Assay plate in the presence of 10 ng/ml M-CSF and 100 ng/ml RANKL in alpha-MEM medium containing 10% FBS and 3 g/L either glucose and fructose (GF), or glucose, fructose, and sedoheptulose (GFS). The Medium was renewed every third day. […] Each well was entirely photographed by TissueFax with an ×20 objective and all visible resorption pits were counted and analysed blinded.

Assay [3] has as its target T1, recombinant sedoheptulose kinase (CARKL) (Homo sapiens, UniProt Q9UHJ6).
T1 construct: made in house; host or cells: E. coli
T1 sequence (Q9UHJ6 1-478): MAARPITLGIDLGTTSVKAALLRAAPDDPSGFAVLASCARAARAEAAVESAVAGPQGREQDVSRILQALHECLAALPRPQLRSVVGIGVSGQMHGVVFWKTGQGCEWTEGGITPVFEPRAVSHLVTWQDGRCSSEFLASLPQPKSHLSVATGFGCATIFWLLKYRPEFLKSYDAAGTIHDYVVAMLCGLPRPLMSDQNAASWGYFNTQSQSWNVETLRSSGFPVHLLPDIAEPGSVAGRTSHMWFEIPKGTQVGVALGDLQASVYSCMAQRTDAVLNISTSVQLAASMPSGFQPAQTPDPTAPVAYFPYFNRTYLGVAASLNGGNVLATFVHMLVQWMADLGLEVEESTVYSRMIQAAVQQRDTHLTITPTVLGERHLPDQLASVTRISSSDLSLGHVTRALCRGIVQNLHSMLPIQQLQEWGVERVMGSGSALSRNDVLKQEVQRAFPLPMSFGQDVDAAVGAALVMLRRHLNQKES
Put plainly: Sedoheptulose kinase assay (ADP Quest, ADP formation). Type of assay: biochemical. The following applies: constant amount of recombinant CARKL, constant ATP (150 μM), increased doses of sedoheptulose, FIG. 4A. Here is the method:
FIG. 4: In an in vitro kinase assay, which employs ADP formation as activity readout, the sedoheptulose turnover rate at constant ATP (150 μM) concentration was enhanced either by (A) increasing sedoheptulose concentration or (B) by increasing the amount of the rate-limiting enzyme sedoheptulose kinase (CARKL). (C-E) Hepatocytes from wilt-type (WT) and sedoheptulose kinase CARKL overexpressing mice were pre-cultured for two days in GFS containing media before basal (C) ECAR and (D) OCR was recorded of these cells. (E) Hepatocytes from both genetic lineages (CARKL and WT controls) were cultivated in GF or GFS containing media and then pre-starved (no-carbohydrates) for 1 h to measure glucose-induced ECAR after the addition of glucose to reach a final concentration of 1 g/L in the culture media mean+/−S.D., n=7-11). As metabolic in vivo indicators (F) the respiratory quotient (RQ) and (G) energy expenditure (EE, kcal/day/kg^0.75) per activity by indirect calorimetry were determined and compared CARKL to wild-type (WT) littermates during day (8 am to 4 pm) and night (8 pm to 4 am). Data represent mean values, n=3, +/−SD. […] Blood glucose was measured before the injection (control) and 15, 30, 45 and 60 minutes after injection and graphed as relative value in % of control. […]

For `O=C(CO)[C@@H](O)[C@H](O)[C@H](O)[C@H](O)CO` [sedoheptulose, Sedoheptulose], the IL-6 expression result in assay [1] is recorded as “less”. Moreover, the “pit formation by osteoclasts” value in assay [2] (7 days in Corning Osteo Assay plates, GFS vs GF media, FIG. 5C) was “reduced”. For the same molecule, the larger resorption-pits result in assay [2] (WT osteoclasts in GF or GFS media, FIG. 5D) is recorded as “found only in the absence of sedoheptulose”. For the same molecule, the “sedoheptulose turnover rates as measured by ADP formation” value in assay [3] is “enhanced”.
